Assay results published in PubChem BioAssay (NCI).
“And” between values parts separate entries of the source, which are not always exact repeats. Equal entries are not always repeated.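 Results reflect a 48-hour exposure of cells in 96-well plates to compound at five concentrations. GI50 is the concentration that inhibits growth by half. TGI: total growth inhibition.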

Assays:
Assay in all cases: NCI tumour cell line growth inhibition, 48 h
OVCAR-3 ovarian = tested on: OVCAR-3 ovarian
K-562 leukemia = tested on: K-562 leukemia
T-47D breast = tested on: T-47D breast
UACC-257 melanoma = tested on: UACC-257 melanoma
NCI-H23 lung = tested on: NCI-H23 lung
SF-539 CNS = tested on: SF-539 CNS
OVCAR-8 ovarian = tested on: OVCAR-8 ovarian
OVCAR-4 ovarian = tested on: OVCAR-4 ovarian
COLO 205 colon = tested on: COLO 205 colon
SK-MEL-5 melanoma = tested on: SK-MEL-5 melanoma
HL-60(TB) leukemia = tested on: HL-60(TB) leukemia
A498 renal = tested on: A498 renal
KM12 colon = tested on: KM12 colon
MOLT-4 leukemia = tested on: MOLT-4 leukemia
UO-31 renal = tested on: UO-31 renal
RXF 393 renal = tested on: RXF 393 renal
TK-10 renal = tested on: TK-10 renal
HT29 colon = tested on: HT29 colon
LOX IMVI melanoma = tested on: LOX IMVI melanoma
SNB-75 CNS = tested on: SNB-75 CNS
SF-295 CNS = tested on: SF-295 CNS
BT-549 breast = tested on: BT-549 breast
NCI-H226 lung = tested on: NCI-H226 lung
HCC-2998 colon = tested on: HCC-2998 colon
MCF7 breast = tested on: MCF7 breast
IGROV1 ovarian = tested on: IGROV1 ovarian
CCRF-CEM leukemia = tested on: CCRF-CEM leukemia
ACHN renal = tested on: ACHN renal
NCI-H460 lung = tested on: NCI-H460 lung
SK-MEL-28 melanoma = tested on: SK-MEL-28 melanoma
CAKI-1 renal = tested on: CAKI-1 renal
HOP-92 NSCLC = tested on: HOP-92 NSCLC
RPMI-8226 leukemia = tested on: RPMI-8226 leukemia
UACC-62 melanoma = tested on: UACC-62 melanoma
SN12C renal = tested on: SN12C renal
HOP-62 NSCLC = tested on: HOP-62 NSCLC
HCT-15 colon = tested on: HCT-15 colon
MALME-3M melanoma = tested on: MALME-3M melanoma
SF-268 CNS = tested on: SF-268 CNS
DU-145 prostate = tested on: DU-145 prostate
M14 melanoma = tested on: M14 melanoma
U251 CNS = tested on: U251 CNS
PC-3 prostate = tested on: PC-3 prostate
786-0 renal = tested on: 786-0 renal
SR leukemia = tested on: SR leukemia
MDA-MB-435 = tested on: MDA-MB-435
HCT-116 colon = tested on: HCT-116 colon
MDA-MB-231 breast = tested on: MDA-MB-231 breast
A549 NSCLC = tested on: A549 NSCLC
OVCAR-5 ovarian = tested on: OVCAR-5 ovarian
NCI/ADR-RES ovarian = tested on: NCI/ADR-RES ovarian
NCI-H522 lung = tested on: NCI-H522 lung
HS 578T breast = tested on: HS 578T breast
EKVX NSCLC = tested on: EKVX NSCLC
SW-620 colon = tested on: SW-620 colon
SNB-19 CNS = tested on: SNB-19 CNS
SK-OV-3 ovarian = tested on: SK-OV-3 ovarian
SK-MEL-2 melanoma = tested on: SK-MEL-2 melanoma

SMILES: CN(C)C/C=C/C(=O)Nc1cc2c(Nc3ccc(F)c(Cl)c3)ncnc2cc1O[C@H]1CCOC1
- GI50 (OVCAR-3 ovarian): 0.232 µM and 0.229 µM
- TGI (OVCAR-3 ovarian): 2.54 µM and > 4.93 µM
- GI50 (K-562 leukemia): 3.17 µM and 1.97 µM
- TGI (K-562 leukemia): 14.1 µM and > 10 µM
- TGI (T-47D breast): 15.9 µM and > 10 µM
- GI50 (UACC-257 melanoma): 1.46 µM and 3.34 µM
- TGI (UACC-257 melanoma): 3.09 µM and > 10 µM
- GI50 (NCI-H23 lung): 1.96 µM and 2.49 µM
- TGI (NCI-H23 lung): 8.66 µM and > 10 µM
- GI50 (SF-539 CNS): 1.5 µM and 2.59 µM
- TGI (SF-539 CNS): 4.68 µM and 9.71 µM
- GI50 (OVCAR-8 ovarian): 1.36 µM and 1.88 µM
- TGI (OVCAR-8 ovarian): 5.37 µM and > 6.85 µM
- GI50 (OVCAR-4 ovarian): 0.915 µM and 1.27 µM
- TGI (OVCAR-4 ovarian): 12.3 µM and > 10 µM
- GI50 (COLO 205 colon): 0.998 µM and 0.887 µM
- TGI (COLO 205 colon): 3.09 µM and > 5.59 µM
- GI50 (SK-MEL-5 melanoma): 1.31 µM and 2.11 µM
- TGI (SK-MEL-5 melanoma): 2.75 µM and > 5.59 µM
- GI50 (HL-60(TB) leukemia): 1.45 µM and 0.599 µM
- TGI (HL-60(TB) leukemia): 5.03 µM and 3.75 µM
- GI50 (A498 renal): 0.155 µM and 0.106 µM
- TGI (A498 renal): 2.55 µM and 2.3 µM
- GI50 (KM12 colon): 1.25 µM and 1.99 µM
- TGI (KM12 colon): 11.3 µM and > 10 µM
- GI50 (MOLT-4 leukemia): 2.43 µM and 1.45 µM
- TGI (MOLT-4 leukemia): 11.3 µM and 7.24 µM
- GI50 (UO-31 renal): 0.762 µM and 0.322 µM
- TGI (UO-31 renal): 16.4 µM and > 10 µM
- GI50 (RXF 393 renal): 1.17 µM and 0.514 µM
- TGI (RXF 393 renal): 6.79 µM and 4.13 µM
- GI50 (TK-10 renal): < 0.01 µM and 0.00136 µM
- GI50 (HT29 colon): 0.815 µM and 0.756 µM
- TGI (HT29 colon): 3.49 µM and > 10 µM
- GI50 (LOX IMVI melanoma): 1.02 µM and 1.38 µM
- TGI (LOX IMVI melanoma): 3.62 µM and > 5.51 µM
- GI50 (SNB-75 CNS): 1.48 µM and 0.983 µM
- TGI (SNB-75 CNS): 10.7 µM and 8.33 µM
- GI50 (SF-295 CNS): 4.93 µM and 3.32 µM
- TGI (SF-295 CNS): 20.9 µM and > 10 µM
- GI50 (BT-549 breast): 2.28 µM and 2.18 µM
- TGI (BT-549 breast): 9.6 µM and > 10 µM
- GI50 (NCI-H226 lung): 2.04 µM and 5.25 µM
- TGI (NCI-H226 lung): 8.45 µM and > 10 µM
- GI50 (HCC-2998 colon): 1.14 µM and 1.58 µM
- TGI (HCC-2998 colon): 3.14 µM and > 9.22 µM
- GI50 (MCF7 breast): 2.23 µM and 2.12 µM
- TGI (MCF7 breast): 9.14 µM and > 10 µM
- TGI (IGROV1 ovarian): 12.5 µM and 2.35 µM
- GI50 (CCRF-CEM leukemia): 1.79 µM and 1.53 µM
- TGI (CCRF-CEM leukemia): 9.17 µM and > 7.56 µM
- GI50 (ACHN renal): < 0.01 µM and 0.00252 µM
- TGI (ACHN renal): 13.1 µM and > 10 µM
- GI50 (NCI-H460 lung): 2.87 µM and 3.46 µM
- TGI (NCI-H460 lung): 11.7 µM and > 10 µM
- GI50 (SK-MEL-28 melanoma): 2.29 µM and 2.45 µM
- TGI (SK-MEL-28 melanoma): 6.8 µM and > 10 µM
- GI50 (CAKI-1 renal): 0.0407 µM and 0.208 µM
- TGI (CAKI-1 renal): 8.39 µM and > 10 µM
- GI50 (HOP-92 NSCLC): 0.227 µM
- TGI (HOP-92 NSCLC): 4.44 µM
- GI50 (RPMI-8226 leukemia): 1.76 µM and 2.14 µM
- TGI (RPMI-8226 leukemia): 5.39 µM and > 6.56 µM
- GI50 (UACC-62 melanoma): 2.39 µM and 3.28 µM
- TGI (UACC-62 melanoma): 7.49 µM and > 10 µM
- GI50 (SN12C renal): 1.46 µM and 0.576 µM
- TGI (SN12C renal): 14.8 µM and > 10 µM
- GI50 (HOP-62 NSCLC): 2.49 µM and 3.38 µM
- TGI (HOP-62 NSCLC): 6.86 µM and > 10 µM
- GI50 (HCT-15 colon): 1.59 µM and 1.33 µM
- TGI (HCT-15 colon): 12.1 µM and > 9.47 µM
- GI50 (MALME-3M melanoma): 2.1 µM and 1.22 µM
- TGI (MALME-3M melanoma): 4.16 µM and 3.95 µM
- GI50 (SF-268 CNS): 2.03 µM and 1.82 µM
- TGI (SF-268 CNS): 8.58 µM and > 10 µM
- GI50 (DU-145 prostate): 0.884 µM and 0.244 µM
- TGI (DU-145 prostate): 12.7 µM and > 10 µM
- GI50 (M14 melanoma): 1.39 µM and 1.42 µM
- TGI (M14 melanoma): 2.99 µM and 6.61 µM
- GI50 (U251 CNS): 0.58 µM and 1.35 µM
- TGI (U251 CNS): 2.96 µM and > 10 µM
- GI50 (PC-3 prostate): 3.19 µM and 3.26 µM
- TGI (PC-3 prostate): 12.8 µM and > 10 µM
- GI50 (786-0 renal): 2.3 µM and 1.79 µM
- TGI (786-0 renal): 13.9 µM and > 10 µM
- GI50 (SR leukemia): 3.46 µM and 1.26 µM
- TGI (SR leukemia): 13.2 µM and 6.5 µM
- GI50 (MDA-MB-435): 0.603 µM and 0.882 µM
- TGI (MDA-MB-435): 7.37 µM and > 5.68 µM
- GI50 (HCT-116 colon): 0.448 µM and 0.679 µM
- TGI (HCT-116 colon): 1.93 µM and > 5.87 µM
- GI50 (MDA-MB-231 breast): 1.2 µM and 0.806 µM
- TGI (MDA-MB-231 breast): 7.06 µM and 4.75 µM
- GI50 (A549 NSCLC): 1.48 µM and 1.6 µM
- TGI (A549 NSCLC): 7.55 µM and > 10 µM
- GI50 (OVCAR-5 ovarian): 0.843 µM and 0.345 µM
- TGI (OVCAR-5 ovarian): 13.3 µM and > 10 µM
- GI50 (NCI/ADR-RES ovarian): 2.27 µM and 1.92 µM
- TGI (NCI/ADR-RES ovarian): 14.8 µM and > 10 µM
- GI50 (NCI-H522 lung): 0.0189 µM and 0.00532 µM
- TGI (NCI-H522 lung): 1.15 µM and 2.74 µM
- GI50 (HS 578T breast): 2.4 µM and 1.62 µM
- TGI (HS 578T breast): 13.3 µM and > 8.16 µM
- GI50 (EKVX NSCLC): < 0.01 µM and 0.003 µM
- TGI (EKVX NSCLC): 11.3 µM and > 10 µM
- GI50 (SW-620 colon): 1.38 µM and 1.5 µM
- TGI (SW-620 colon): 4.63 µM and > 7.89 µM
- GI50 (SNB-19 CNS): 2.76 µM and 2.42 µM
- TGI (SNB-19 CNS): 15.7 µM and > 10 µM
- GI50 (SK-OV-3 ovarian): < 0.01 µM and 0.00185 µM
- TGI (SK-OV-3 ovarian): 0.322 µM and 0.327 µM
- GI50 (SK-MEL-2 melanoma): 1.38 µM and 1.51 µM
- TGI (SK-MEL-2 melanoma): 2.93 µM and 4.13 µM
